Measurements reported in patent US20250326744A1, “PIPERAZINE DERIVATIVE OR SALT THEREOF, AND PHARMACEUTICAL COMPOSITION” (priority 2022, published 2025).
Counter-ions that a name gives are not always drawn.

Tests used:
mexB (EC) strain = assay: Efflux ability inhibition effect on drug efflux pump MexB (Test Examples 1 and 3): proliferation (OD595) of mexB (EC) strain with EM or LVFX at 1/4 MIC, EC75; assay type: cell-based, Escherichia coli; conditions: for EC75, mexB (EC) strain, EM: combined with EM at 1/4 MIC; for EC75, mexB (EC) strain, LVFX: combined with LVFX at 1/4 MIC
Method: The efflux ability inhibition effect of the test compound on the drug efflux pump was evaluated using the bacterial proliferative ability in the presence of EM or LVFX as an index.
EM is a macrolide antibacterial agent and is a drug that is discharged outside the bacteria by MexB and MexY LVFX is a quinolone antibacterial agent and is a drug that is discharged outside the bacteria by MexB and MexY In a case where the test compound has an efflux ability inhibitory ability against the drug efflux pump, the proliferation of bacteria is suppressed by the combined use of EM or LVFX and the test compound, as compared with the case where EM or LVFX is used alone.
A mutant strain (hereinafter, referred to as an “mexB (EC) strain”) obtained by transferring the genes of the main multidrug efflux system MexAB-OprM of Pseudomonas aeruginosa described in Nature, 2013, Vol. 500, pp. 102 to 106 as a plasmid into Escherichia coli strains in which the acrB and tolC genes of the multidrug efflux system AcrAB-TolC were deleted as described in Journal of Infection and Chemotherapy 2008, Vol. 14, pp. 23 to 29, and a gene transfer strain (hereinafter, referred to as an “mexY (EC) strain”) of another main multidrug efflux system MexXY-OprM of Pseudomonas aeruginosa were used for the evaluation of test compounds.
In the mexB (EC) strain, an expression level of MexB of the drug efflux pump is accelerated, and in the mexY (EC) strain, an expression level of MexY of the drug efflux pump is accelerated.
For culturing each Escherichia coli strain, a 96-well plate (amount of culture medium per well: 100 μL) was used and Luria-Bertani broth (LB) culture medium was used. The inoculation amount of the bacteria was set to 10^4 to 5 CFU/well.
The mexB (EC) strain and the mexY (EC) strain were cultured for 16 to 20 hours in a culture medium to which EM or LVFX and test compounds at various concentrations (0 to 800 μM) were added, and the proliferation of the bacterial strains was evaluated by optical turbidity at 595 nm (OD595). The concentration of the antibacterial agents (EM and LVFX) in the culture medium were each set to ¼ of the minimum inhibitory concentration (MIC) (hereinafter, referred to as ¼ MIC) of the single antibacterial agent.
The proliferation of bacteria in a case where the antibacterial agent was added at the concentration of ¼ MIC in a case where the test compound was not added was measured, and compared with the proliferation of bacteria in a case where the test compound was contained, and the lowest concentration of the test compound at which the proliferation was inhibited by 75% or more was defined as the drug efflux pump inhibitory ability of the test compound as 75% inhibitory effect concentration (EC75).
The drug efflux pump inhibitory ability of each test compound in a case of being used in combination with the antibacterial agent against the mexB (EC) strain and the mexY (EC) strain was evaluated as follows according to the value of EC75. • S: EC75≤[…] • A: 12.5 μM<EC75≤25 μM • B: 25 μM<EC75≤100 μM • C: […]
In the same manner as in Test Example 1, the efflux ability inhibition effect of the test compound on the drug efflux pump was evaluated using the bacterial proliferation ability in the presence of EM or LVFX as an index.

S-3769 strain = assay: Combinational effect with antibacterial agent against Pseudomonas aeruginosa (Test Examples 2 and 4): S-3769 strain with AMK or GM at 1/4 MIC, EC99; assay type: cell-based; conditions: S-3769 strain, Test Example 4; for EC99, combinational effect with AMK, S-3769 strain: combined with AMK at 1/4 MIC; for EC99, combinational effect with GM, S-3769 strain: combined with GM at 1/4 MIC
Procedure, shortened: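 EC99, the lowest test-compound concentration inhibiting growth by ≥99% (OD595), was measured with aminoglycoside AMK or GM held at ¼ MIC. Strain S-3769, a MexY-overexpressing clinical isolate, was cultured in CAMHB at 10^4 to 5 CFU/well for 16–20 h; compound range 0–800 μM.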

mexB (PA) strain = assay: Combinational effect with antibacterial agent against Pseudomonas aeruginosa (Test Examples 2 and 4): mexB (PA) strain with LVFX, TC or AZT at 1/4 MIC, EC99; assay type: cell-based; conditions: mexB (PA) strain, Test Example 4; for EC99, combinational effect with AZT, mexB (PA): combined with AZT at 1/4 MIC; for EC99, combinational effect with LVFX, mexB (PA): combined with LVFX at 1/4 MIC; for EC99, combinational effect with TC, mexB (PA): combined with TC at 1/4 MIC
Procedure, shortened: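 EC99 denotes the minimum test-compound concentration (range 0–800 μM) that suppresses ≥99% of growth, measured by OD595, when combined with ¼ MIC levofloxacin (LVFX), tetracycline or aztreonam. The efflux-pump mutant mexB (PA), expressing mainly MexAB-OprM, was inoculated at 10^4–5 CFU/well in CAMHB for 16–20 h.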

[1] = Table 51, Test Example 1, 16 to 20 hours culture, OD595
[2] = Table 53, Test Example 3, same manner as Test Example 1

Row | Compound | EC75, mexB (EC) strain, EM (mexB (EC) strain; [1]) | EC75, mexB (EC) strain, LVFX (mexB (EC) strain; [1]) | EC75, mexB (EC) strain, EM (mexB (EC) strain; [2]) | EC99, combinational effect with AMK, S-3769 strain (S-3769 strain) | EC99, combinational effect with GM, S-3769 strain (S-3769 strain) | EC99, combinational effect with AZT, mexB (PA) (mexB (PA) strain) | EC99, combinational effect with LVFX, mexB (PA) (mexB (PA) strain) | EC99, combinational effect with TC, mexB (PA) (mexB (PA) strain) | EC75, mexB (EC) strain, LVFX (mexB (EC) strain; [2])
1 | COc1cccc(F)c1C(C)N1CCN(C(=O)CN2CCN(CCc3ccccc3)CC2)CC1.Cl (stereo not drawn) [Example 269, hydrochloride of 1-(4-(1-(2-fluoro-6-methoxyphenyl)ethyl)piperazin-1-yl)-2-(4-phenethylpiperazin-1-yl)ethan-1-one] | A (12.5 μM<EC75≤25 μM) | A (12.5 μM<EC75≤25 μM) |  |  |  |  |  |  | 
2 | COc1ccccc1CN1CCN(C(=O)CN2CCN(CCc3ccccn3)CC2)CC1 [Example 288, 1-(4-(2-Methoxybenzyl)piperazin-1-yl)-2-(4-(2-(pyridin-2-yl)ethyl)piperazin-1-yl)ethan-1-one and hydrochloride thereof] | B (25 μM<EC75≤100 μM) | B (25 μM<EC75≤100 μM) |  |  |  |  |  |  | 
3 | COc1ccccc1CN1CCN(C(=O)CN2CCN(CCc3cncs3)CC2)CC1 [Example 294, 1-(4-(2-Methoxybenzyl)piperazin-1-yl)-2-(4-(2-(thiazol-5-yl)ethyl)piperazin-1-yl)ethan-1-one and hydrochloride thereof] |  | A (12.5 μM<EC75≤25 μM) |  |  |  |  |  |  | 
4 | COc1ccccc1CN1CCN(C(=O)CC2CCN(CCc3ccccc3)CC2)CC1 [Example 304, hydrochloride of 1-(4-(2-methoxybenzyl)piperazin-1-yl)-2-(1-phenethylpiperidin-4-yl)ethan-1-one] | A (12.5 μM<EC75≤25 μM) | B (25 μM<EC75≤100 μM) |  |  |  |  |  |  | 
5 | COc1ccccc1CN1CCN(C(=O)CN2CCC(CCc3ccccc3)(NC(C)=O)CC2)CC1 [Example 415, hydrochloride of N-(1-(2-(4-(2-methoxybenzyl)piperazin-1-yl)-2-oxoethyl)-4-phenethylpiperidin-4-yl)acetamide] |  | A (12.5 μM<EC75≤25 μM) |  |  |  |  |  |  | 
6 | CCOc1cccc(F)c1CN1CCN(C(=O)[C@H](N)C2CCN(CCc3cc(Cl)ccc3-c3cn(C)nc3C)CC2)CC1 [Example 500, Hydrobromide of (R)-2-amino-2-(1-(5-chloro-2-(1,3-dimethyl-1H-pyrazol-4-yl)phenethyl)piperidin-4-yl)-1-(4-(2-ethoxy-6-fluorobenzyl)piperazin-1-yl)ethan-1-one] |  |  | A (12.5 μM<EC75≤25 μM) | A (12.5 μM<EC99≤25 μM) | A (12.5 μM<EC99≤25 μM) | C (100 μM<EC99) | C (100 μM<EC99) | C (100 μM<EC99) | 
7 | CCOc1cccnc1CN1CCN(C(=O)[C@H](N)C2CCN(CCc3cc(Cl)ccc3-c3ccccc3)CC2)CC1 [Example 508, Hydrobromide of (R)-2-amino-2-(1-(2-(4-chloro-[1,1-biphenyl]-2-yl)ethyl)piperidin-4-yl)-1-(4-((3-ethoxypyridin-2-yl)methyl)piperazin-1-yl)ethan-1-one] |  |  | A (12.5 μM<EC75≤25 μM) | S (EC99≤12.5 μM) | A (12.5 μM<EC99≤25 μM) | B (25 μM<EC99≤100 μM) | C (100 μM<EC99) | B (25 μM<EC99≤100 μM) | 
8 | N[C@@H](C(=O)N1CCN(Cc2ncc3ccccn23)CC1)C1CCN(CCc2cc(Cl)ccc2-c2ccccc2)CC1 [Example 518, Hydrobromide of (R)-2-amino-2-(1-(2-(4-chloro-[1,1-biphenyl]-2-yl)ethyl)piperidin-4-yl)-1-(4-(imidazo[1,5-a]pyridin-3-ylmethyl)piperazin-1-yl)ethan-1-one] |  |  |  | B (25 μM<EC99≤100 μM) | B (25 μM<EC99≤100 μM) | C (100 μM<EC99) | C (100 μM<EC99) | C (100 μM<EC99) | A (12.5 μM<EC75≤25 μM)
9 | Cn1ccnc1CN1CCN(C(=O)[C@H](N)C2CCN(CCc3cc(Cl)ccc3-c3ccccc3)CC2)CC1 [Example 525, Hydrobromide of (R)-2-amino-2-(1-(2-(4-chloro-[1,1-biphenyl]-2-yl)ethyl)piperidin-4-yl)-1-(4-((1-methyl-1H-imidazol-2-yl)methyl)piperazin-1-yl)ethan-1-one] |  |  |  | C (100 μM<EC99) | C (100 μM<EC99) | C (100 μM<EC99) | C (100 μM<EC99) | C (100 μM<EC99) | B (25 μM<EC75≤100 μM)
10 | C=C(Br)c1ccc(Cl)cc1CCN1CCC([C@@H](N)C(=O)N2CCN(Cc3c(F)cccc3OCC)CC2)CC1 [Example 545, Hydrobromide of (R)-2-amino-2-(1-(2-(1-bromovinyl)-5-chlorophenethyl)piperidin-4-yl)-1-(4-(2-ethoxy-6-fluorobenzyl)piperazin-1-yl)ethan-1-one] |  |  |  | S (EC99≤12.5 μM) | S (EC99≤12.5 μM) | B (25 μM<EC99≤100 μM) | B (25 μM<EC99≤100 μM) | B (25 μM<EC99≤100 μM) | A (12.5 μM<EC75≤25 μM)
11 | CCOc1cccc(F)c1CN1CCN(C(=O)[C@H](N)C2CCN(CCc3cc(Cl)ccc3C#Cc3ccccc3)CC2)CC1 [Example 546, Hydrobromide of (R)-2-amino-2-(1-(5-chloro-2-(phenylethynyl)phenethyl)piperidin-4-yl)-1-(4-(2-ethoxy-6-fluorobenzyl)piperazin-1-yl)ethan-1-one] |  |  | A (12.5 μM<EC75≤25 μM) | S (EC99≤12.5 μM) | S (EC99≤12.5 μM) | C (100 μM<EC99) | C (100 μM<EC99) | A (12.5 μM<EC99≤25 μM) | A (12.5 μM<EC75≤25 μM)
12 | CCOc1cccc(F)c1CN1CCN(C(=O)[C@H](N)C2CCN(CCc3cc(-c4ccccc4)ccc3Cl)CC2)CC1 [Example 566, Hydrobromide of (R)-2-amino-2-(1-(2-(4-chloro-[1,1-biphenyl]-3-yl)ethyl)piperidin-4-yl)-1-(4-(2-ethoxy-6-fluorobenzyl)piperazin-1-yl)ethan-1-one] |  |  | A (12.5 μM<EC75≤25 μM) | S (EC99≤12.5 μM) | S (EC99≤12.5 μM) | B (25 μM<EC99≤100 μM) | B (25 μM<EC99≤100 μM) | B (25 μM<EC99≤100 μM) | 
